Calls of active or inactive are those of the source. No cut-off for these calls is given here.
Columns and labels:
Jurkat = experiment: Antiproliferative activity against human Jurkat cells assessed as inhibition of cell proliferation incubated for 72 hrs by CCK-8 assay; assay type: functional, cell-based
NCI-H358 = experiment: Antiproliferative activity against human NCI-H358 cells assessed as inhibition of cell proliferation incubated for 72 hrs by CCK-8 assay; assay type: functional, cell-based; conditions: NCI-H358, 72 h
[1] = Induction of cell cycle arrest in mouse WEHI-3 cells assessed as increase in accumulation of cells at G2 phase at 0.5 uM incubated for 24 hrs by propidium iodide staining based flow cytometric analysis (reference value: 1.85%); assay type: functional
WEHI-3 [2] = experiment: Induction of cell cycle arrest in mouse WEHI-3 cells assessed as increase in P21 level at 0.15 to 1.2 uM incubated for 24 hrs by Western blotting analysis; assay type: functional, cell-based; conditions: dose 0.15-1.2 µM
Kasumi 1 [3] = experiment: Induction of cell cycle arrest in human Kasumi 1 cells assessed as increase in P21 level at 0.15 to 1.2 uM incubated for 24 hrs by Western blotting analysis; assay type: functional, cell-based; conditions: dose 0.15-1.2 µM
NCI-H460 = experiment: Inhibition of tumor sphere formation in human NCI-H460 cells incubated for 24 hrs; assay type: functional, cell-based
[4] = Induction of cell cycle arrest in mouse WEHI-3 cells assessed as increase in accumulation of cells at G1 phase at 0.25 uM incubated for 24 hrs by propidium iodide staining based flow cytometric analysis (reference value: 46.93%); assay type: functional
WEHI-3 [5] = experiment: Induction of pyroptosis in mouse WEHI-3 cells assessed as effect on cleaved N-GSDMB at 0.6 to 2.5 uM incubated for 24 hrs by Western blotting analysis; assay type: functional, cell-based; conditions: dose 0.6-2.5 µM
WEHI-3 [6] = experiment: Induction of cell cycle arrest in mouse WEHI-3 cells assessed as increase in P53 level at 0.15 to 1.2 uM incubated for 24 hrs by Western blotting analysis; assay type: functional, cell-based; conditions: dose 0.15-1.2 µM
[7] = Induction of cell cycle arrest in mouse WEHI-3 cells assessed as increase in accumulation of cells at G1 phase at 0.5 uM incubated for 24 hrs by propidium iodide staining based flow cytometric analysis (reference value: 46.93%); assay type: functional
Kasumi 1 [8] = experiment: Induction of cell differentiation in human Kasumi 1 cells assessed as increase in CD11B expression by Western blotting analysis; assay type: functional, cell-based; conditions: dose 0.25-1 µM
Kasumi 1 [9] = experiment: Disruption of pyruvate metabolic pathway in human Kasumi 1 cells by KEGG enrichment analysis; assay type: functional, cell-based
NCI-H23 = experiment: Antiproliferative activity against human NCI-H23 cells assessed as inhibition of cell proliferation incubated for 72 hrs by CCK-8 assay; assay type: functional, cell-based; conditions: NCI-H23, 72 h
WEHI-3 [10] = experiment: Induction of apoptosis in mouse WEHI-3 cells assessed as increase in caspase-3 level incubated for 72 hrs by Western blotting analysis; assay type: functional, cell-based; conditions: dose 0.625-5 µM
Kasumi 1 [11] = experiment: PANoptosis in human Kasumi 1 cells assessed as cell death at 0.6 uM incubated for 72 hrs by optical microscopic analysis; assay type: functional, cell-based
[12] = Induction of cell cycle arrest in mouse WEHI-3 cells assessed as increase in accumulation of cells at G1 phase at 1 uM incubated for 24 hrs by propidium iodide staining based flow cytometric analysis (reference value: 46.93%); assay type: functional
HCT-116 [13] = experiment: Anti-cancer activity against human HCT-116 cells assessed as reduction in size of spheroids incubated for 24 hrs; assay type: functional, cell-based
WEHI-3 [14] = experiment: Induction of apoptosis in mouse WEHI-3 cells assessed as increase in cleaved PARP-1 level incubated for 72 hrs by Western blotting analysis; assay type: functional, cell-based; conditions: dose 0.625-5 µM
Kasumi 1 [15] = experiment: Induction of apoptosis in human Kasumi 1 cells assessed as increase in caspase-3 level incubated for 72 hrs by Western blotting analysis; assay type: functional, cell-based; conditions: dose 0.625-5 µM
WEHI-3 [16] = experiment: Inhibition of colony formation in mouse WEHI-3 cells incubated for 15 days by crystal violet staining based analysis; assay type: functional, cell-based; conditions: dose 0.5-1 µM, time 15.0 day
HCT-116 [17] = experiment: Antiproliferative activity against human HCT-116 cells assessed as inhibition of cell proliferation incubated for 72 hrs by CCK-8 assay; assay type: functional, cell-based; conditions: HCT-116, 72 h
Kasumi 1 [18] = experiment: Induction of […] in human Kasumi 1 cells assessed as increase in p-MLKL level at 0.625 to 5 uM incubated for 72 hrs by Western blotting analysis; assay type: functional, cell-based; conditions: dose 0.625-5 µM
MIA PaCa-2 = experiment: Antiproliferative activity against human MIA PaCa-2 cells assessed as inhibition of cell proliferation incubated for 72 hrs by CCK-8 assay; assay type: functional, cell-based; conditions: MIA PaCa-2, 72 h
HT-29 = experiment: Antiproliferative activity against human HT-29 cells assessed as inhibition of cell proliferation incubated for 72 hrs by CCK-8 assay; assay type: functional, cell-based; conditions: HT-29, 72 h
[19] = Antiproliferative activity against human SKNO-1 cells assessed as inhibition of cell proliferation incubated for 72 hrs by CCK-8 assay; assay type: functional, cell-based; conditions: SKNO-1, 72 h
WEHI-3 [20] = experiment: Induction of cell differentiation in mouse WEHI-3 cells assessed as lobulated nuclei at 1 uM incubated for 24 hrs by giemsa-Wrights staining based analysis; assay type: functional
Kasumi 1 [21] = experiment: Induction of cell differentiation in human Kasumi 1 cells assessed as lobulated nuclei at 1 uM incubated for 24 hrs by giemsa-Wrights staining based analysis; assay type: functional
Kasumi 1 [22] = experiment: Induction of cell cycle arrest in human Kasumi 1 cells assessed as increase in accumulation of cells at G2 phase at 0.25 uM incubated for 24 hrs by propidium iodide staining based flow cytometric analysis (reference value: 9.82%); assay type: functional
WEHI-3 [23] = experiment: Antitumor activity against mouse WEHI-3 cells implanted in Balb/c mouse assessed as reduction in leukocyte number at 100 to 200 mg/kg, po administered (4aR,6aS,7S,9aS,9bS)-2-(((S)-2-(hydroxymethyl)pyrrolidin-1-yl)methyl)-6a-methyl7 ((triisopropylsilyl)oxy)decahydrocyclopenta[f]chromen-3(2H)-one as prodrug once daily and measured after 15 days by H and E staining based analysis; assay type: functional, organism-based; conditions: dose 100-200 mg/kg, time 15.0 day
Kasumi 1 [24] = experiment: Induction of cell cycle arrest in human Kasumi 1 cells assessed as increase in accumulation of cells at G2 phase at 0.5 uM incubated for 24 hrs by propidium iodide staining based flow cytometric analysis (reference value: 9.82%); assay type: functional
[25] = Toxicity in Balb/c mouse implanted with mouse WEHI-3 cells assessed as animal survival at 100 to 200 mg/kg, po administered (4aR,6aS,7S,9aS,9bS)-2-(((S)-2-(hydroxymethyl)pyrrolidin-1-yl)methyl)-6a-methyl7 ((triisopropylsilyl)oxy)decahydrocyclopenta[f]chromen-3(2H)-one as prodrug once daily and measured after 15 days; assay type: organism-based; conditions: in vivo, 360 h, dose 100-200 mg/kg, time 15 day
WEHI-3 [26] = experiment: Induction of pyroptosis in mouse WEHI-3 cells assessed as increase in p-MLKL level at 0.625 to 5 uM incubated for 72 hrs by Western blotting analysis; assay type: functional, cell-based; conditions: dose 0.625-5 µM
[27] = Induction of cell cycle arrest in mouse WEHI-3 cells assessed as increase in accumulation of cells at S phase at 0.5 uM incubated for 24 hrs by propidium iodide staining based flow cytometric analysis (reference value: 51.22%); assay type: functional
PANC-1 = experiment: Antiproliferative activity against human PANC-1 cells assessed as inhibition of cell proliferation incubated for 72 hrs by CCK-8 assay; assay type: functional, cell-based; conditions: PANC-1, 72 h
HCT-15 = experiment: Antiproliferative activity against human HCT-15 cells assessed as inhibition of cell proliferation incubated for 72 hrs by CCK-8 assay; assay type: functional, cell-based; conditions: HCT-15, 72 h

## C=C1C[C@@H]2[C@@H](CC[C@]3(C)[C@@H](O[Si](C(C)C)(C(C)C)C(C)C)CC[C@@H]23)OC1=O
Jurkat
  IC50: 2600 nM
NCI-H358
  IC50: 1780 nM
[1]
  Activity: 3.33%
WEHI-3 [2]
  Activity: Active
Kasumi 1 [3]
  Activity: Active
NCI-H460
  inhibition: Active
[4]
  Activity: 51.78%
WEHI-3 [5]
  Activity: Active
WEHI-3 [6]
  Activity: Active
[7]
  Activity: 53.15%
Kasumi 1 [8]
  Activity: Dose-dependent-effect
Kasumi 1 [9]
  Activity: Active
NCI-H23
  IC50: 4000 nM
WEHI-3 [10]
  Activity: Dose-dependent-effect
Kasumi 1 [11]
  Activity: Active
[12]
  Activity: 64.54%
HCT-116 [13]
  Activity: Active
WEHI-3 [14]
  Activity: Dose-dependent-effect
Kasumi 1 [15]
  Activity: Dose-dependent-effect
WEHI-3 [16]
  inhibition: Dose-dependent-effect
HCT-116 [17]
  IC50: 1930 nM
Kasumi 1 [18]
  Activity: Active
MIA PaCa-2
  IC50: 1710 nM
HT-29
  IC50: 1740 nM
[19]
  IC50: 1240 nM
WEHI-3 [20]
  Activity: Active
Kasumi 1 [21]
  Activity: Active
Kasumi 1 [22]
  Activity: 10.77%
WEHI-3 [23]
  Activity: Active
Kasumi 1 [24]
  Activity: 14.84%
[25]
  Activity: Non-toxic
WEHI-3 [26]
  Activity: Active
[27]
  Activity: 43.52%
PANC-1
  IC50: 1310 nM
HCT-15
  IC50: 8900 nM

— ChEMBL document CHEMBL6115002, “Discovery of novel sitolactone derivative leading to PANoptosis and differentiation of acute myeloid leukemia cells” (Eur J Med Chem, 2025)
